In general, EC50 refers to the midpoint of the concentration-response curve. Low values mean an effect from little substance, high ones a need for much substance.

The assay deals with T1, human iNOS (Homo sapiens, UniProt P35228).
T1 construct: expressed in transfected cells; host or cells: HEK293
T1 sequence (P35228 whole entry): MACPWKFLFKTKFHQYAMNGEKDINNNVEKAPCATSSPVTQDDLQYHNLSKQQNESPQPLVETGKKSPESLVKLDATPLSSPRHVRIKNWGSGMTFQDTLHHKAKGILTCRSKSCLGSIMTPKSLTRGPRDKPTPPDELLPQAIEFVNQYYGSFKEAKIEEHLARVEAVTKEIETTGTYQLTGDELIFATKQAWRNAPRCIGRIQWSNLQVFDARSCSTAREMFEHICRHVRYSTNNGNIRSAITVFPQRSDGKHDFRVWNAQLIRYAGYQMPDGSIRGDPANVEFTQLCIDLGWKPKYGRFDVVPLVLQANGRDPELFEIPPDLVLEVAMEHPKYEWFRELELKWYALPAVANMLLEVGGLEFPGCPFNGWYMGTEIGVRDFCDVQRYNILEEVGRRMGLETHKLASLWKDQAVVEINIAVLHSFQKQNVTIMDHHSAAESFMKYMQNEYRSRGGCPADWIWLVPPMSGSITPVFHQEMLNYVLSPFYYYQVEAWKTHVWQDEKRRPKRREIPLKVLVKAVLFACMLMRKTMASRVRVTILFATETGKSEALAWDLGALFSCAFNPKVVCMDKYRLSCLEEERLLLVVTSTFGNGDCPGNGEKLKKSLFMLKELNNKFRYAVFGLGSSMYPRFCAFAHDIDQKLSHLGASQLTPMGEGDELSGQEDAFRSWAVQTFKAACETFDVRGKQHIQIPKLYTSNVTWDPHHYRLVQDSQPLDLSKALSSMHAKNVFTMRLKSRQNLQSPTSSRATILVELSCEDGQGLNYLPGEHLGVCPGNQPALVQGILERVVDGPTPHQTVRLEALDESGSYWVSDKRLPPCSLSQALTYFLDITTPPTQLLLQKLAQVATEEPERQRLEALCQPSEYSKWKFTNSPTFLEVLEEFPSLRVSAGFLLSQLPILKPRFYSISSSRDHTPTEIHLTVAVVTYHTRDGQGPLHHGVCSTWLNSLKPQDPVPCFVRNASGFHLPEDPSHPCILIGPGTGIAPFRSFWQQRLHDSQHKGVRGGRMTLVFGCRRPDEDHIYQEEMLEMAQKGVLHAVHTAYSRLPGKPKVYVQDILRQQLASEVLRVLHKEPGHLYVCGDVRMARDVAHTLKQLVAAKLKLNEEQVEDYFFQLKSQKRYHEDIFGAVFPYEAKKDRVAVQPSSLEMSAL
The assay is described as follows: DAN assay of nitric oxide production (hiNOS). The conditions noted are these: enzyme expressed in HEK293 cells transiently transfected with human iNOS. Type of assay: cell-based. An excerpt: The source of nitric oxide synthase (NOS) enzyme can be generated in several ways including induction of endogenous iNOS using cytokines and/or lipopolysaccharide (LPS) in various cell types known in the art. Alternatively, the gene encoding the enzyme can be cloned and the enzyme can be generated in cells via heterologous expression from a transient or stable expression plasmid with suitable features for protein expression as are known in the art. Enzymatic activity (nitric oxide production) is calcium independent for iNOS, while the constitutive NOS isoforms, nNOS and eNOS, become active with the addition of various cofactors added to cellular media or extract as are well known in the art. Enzymes specified in Table 1 were expressed in HEK293 cells transiently transfected with human iNOS.
A major metabolic pathway for nitric oxide is to nitrate and nitrite, which are stable metabolites within tissue culture, tissue, plasma, and urine (S Moncada, A Higgs, N Eng J Med 329, 2002 (1993)).
The level of nitrate or nitrite in the specimen can be quantified by any method known in the art which provides adequate sensitivity and reproducibility. A variety of protocols have also been described for detecting and quantifying nitrite and nitrate levels in biological fluids by ion chromatography (e.g., A Everett et al., J. Chromatogr. 706, 437 (1995); J M Monaghan et al., J. Chromatogr. 770, 143 (1997)), high-performance liquid chromatography (e.g., M Kelm et al., Cardiovasc. Res. 41, 765 (1999)), and capillary electrophoresis (MA Friedberg et al., J. Chromatogr. 781, 491 (1997)). For example, 2,3-diaminonaphthalene reacts with the nitrosonium cation that forms spontaneously from NO to form the fluorescent product 1H-naphthotriazole. Using 2,3-diaminonaphthalene (“DAN”), researchers have developed a rapid, quantitative fluorometric assay that can detect from 10 nM to 10 μM nitrite and is compatible with a multi-well microplate format. […] DAN reacts with nitrite ion and gives fluorescent naphthotriazole (MC Carré et al., Analusis 27, 835-838 (1999)). Table 1 provides the test results of various compounds of the subject invention using the DAN assay.
A specimen can be processed prior to determination of nitrate or nitrite as required by the quantification method, or in order to improve the results, or for the convenience of the investigator. For example, processing can involve centrifuging, filtering, or homogenizing the sample. If the sample is whole blood, the blood can be centrifuged to remove cells and the nitrate or nitrite assay performed on the plasma or serum fraction. If the sample is tissue, the tissue can be dispersed or homogenized by any method known in the art prior to determination of nitrate or nitrite. It may be preferable to remove cells and other debris by centrifugation or another method and to determine the nitrate or nitrite level using only the fluid portion of the sample, or the extracellular fluid fraction of the sample. The sample can also be preserved for later determination, for example by freezing of urine or plasma samples. When appropriate, additives may be introduced into the specimen to preserve or improve its characteristics for use in the nitrate or nitrite assay.
The “level” of nitrate, nitrite, or other NO-related product usually refers to the concentration (in moles per liter, micromoles per liter, or other suitable units) of nitrate or nitrite in the specimen, or in the fluid portion of the specimen. However, other units of measure can also be used to express the level of nitrate or nitrite. For example, an absolute amount (in micrograms, milligrams, nanomoles, moles, or other suitable units) can be used, particularly if the amount refers back to a constant amount (e.g., grams, kilograms, milliliters, liters, or other suitable units) of the specimens under consideration. A number of commercially available kits can be used. […]
As for `Cc1cccc(N(Cc2cc(=O)[nH]c3c(F)cccc23)C(=O)c2scnc2C)c1` [Example 93, N-(3-Methylphenyl)-N-((8-fluoro-2-oxo-1,2-dihydroquinolin-4-yl)methyl)-4-methylthiazole-5-carboxamide], the EC50 is not above 5 µM.
Then `Cc1oncc1C(=O)N(Cc1cc(=O)[nH]c2ccccc12)c1ccccc1` [Example 31, 5-Methyl-N-((2-oxo-1,2-dihydroquinolin-4-yl)methyl)-N-phenylisoxazole-4-carboxamide], with more than 5 µM; and `O=C(c1ccco1)N(Cc1cc(=O)[nH]c2c(F)cccc12)c1ccccc1` [Example 17, N-((8-Fluoro-2-oxo-1,2-dihydroquinolin-4-yl)methyl)-N-phenylfuran-2-carboxamide], with more than 5 µM; and `Cn1nccc1C(=O)N(Cc1cc(=O)[nH]c2c(F)c(F)ccc12)c1cccc(Cl)c1` [Example 112, N-(3-Chlorophenyl)-N-((7,8-difluoro-2-oxo-1,2-dihydroquinolin-4-yl)methyl)-1-methyl-1H-pyrazole-5-carboxamide], with more than 5 µM.
The compound `CN(C)Cc1nc2ccccc2n1Cc1cc(=O)[nH]c2c(F)c(F)ccc12` [Example 198, 4-((2-((Dimethylamino)methyl)-1H-benzo[d]imidazol-1-yl)methyl)-7,8-difluoroquinolin-2(1H)-one] displayed an EC50 of more than 5 µM.
For `Cc1nccn1-c1nc2ccccc2n1Cc1cc(=O)[nH]c2c(F)c(F)ccc12` [Example 208, 7,8-Difluoro-4-((2-(2-methyl-1H-imidazol-1-yl)-1H-benzo[d]imidazol-1-yl)methyl)quinolin-2(1H)-one], the EC50 was not above 5 µM.
Take `CC(C)(C)OC(=O)N1CCC(c2nc3ccccc3n2Cc2cc(=O)[nH]c3c(F)c(F)ccc23)CC1` [Example 205, tert-Butyl 4-(1-((7,8-difluoro-2-oxo-1,2-dihydroquinolin-4-yl)methyl)-1H-benzo[d]imidazol-2-yl)piperidine-1-carboxylate]: the EC50 is more than 5 µM.
To `O=C(c1cnccn1)N(Cc1cc(=O)[nH]c2ccccc12)c1ccccc1` [Example 36, N-((2-Oxo-1,2-dihydroquinolin-4-yl)methyl)-N-phenylpyrazine-2-carboxamide] belongs more than 5 µM; to `O=c1cc(Cn2c(-c3cccc(F)c3)nc3ccccc32)c2ccc(F)c(F)c2[nH]1` [Example 196, 7,8-Difluoro-4-((2-(3-fluorophenyl)-1H-benzo[d]imidazol-1-yl)methyl)quinolin-2(1H)-one], not above 5 µM.
`Cc1ccc(C)c(-c2nc3ccccc3n2Cc2cc(=O)[nH]c3c(F)c(F)ccc23)c1` [Example 243, 4-((2-(2,5-Dimethylphenyl)-1H-benzo[d]imidazol-1-yl)methyl)-7,8-difluoroquinolin-2(1H)-one] yielded an EC50 of more than 5 µM.
Consider `CN(C)c1ccc(C(=O)N(Cc2cc(=O)[nH]c3c(F)cccc23)c2cccc(Cl)c2)cc1` [Example 76, N-(3-Chlorophenyl)-4-(dimethylamino)-N-((8-fluoro-2-oxo-1,2-dihydroquinolin-4-yl)methyl)benzamide], for which the EC50 is more than 5 µM.
To `COc1ccc(C(=O)N(Cc2cc(=O)[nH]c3c(F)cccc23)c2cccc(Cl)c2)cc1` [Example 62, N-(3-Chlorophenyl)-N-((8-fluoro-2-oxo-1,2-dihydroquinolin-4-yl)methyl)-4-methoxybenzamide] belongs more than 5 µM.
Then `O=C(c1cccc2ccccc12)N(Cc1cc(=O)[nH]c2c(F)cccc12)c1cccc(Cl)c1` [Example 82, N-(3-Chlorophenyl)-N-((8-fluoro-2-oxo-1,2-dihydroquinolin-4-yl)methyl)-1-naphthamide], with more than 5 µM; and `COc1ccc(N(Cc2cc(=O)[nH]c3ccccc23)C(=O)c2ccco2)cc1` [Example 10, N-(4-Methoxyphenyl)-N-[(2-oxo-1,2-dihydroquinolin-4-yl)methyl]-2-furamide], with not above 5 µM.
To `O=C(c1cccnc1)N(Cc1cc(=O)[nH]c2c(F)cccc12)c1cccc(Cl)c1` [Example 68, N-(3-Chlorophenyl)-N-((8-fluoro-2-oxo-1,2-dihydroquinolin-4-yl)methyl)nicotinamide] belongs more than 5 µM.
The compound `O=C(c1cccc(F)c1)N(Cc1cc(=O)[nH]c2c(F)cccc12)c1cccc(Cl)c1` [Example 55, N-(3-Chlorophenyl)-3-fluoro-N-((8-fluoro-2-oxo-1,2-dihydroquinolin-4-yl)methyl)benzamide] returned an EC50 of more than 5 µM.
Regarding `O=c1cc(Cn2cnc(-c3ccccc3)c2)c2ccc(F)c(F)c2[nH]1` [Example 260, 7,8-Difluoro-4-((4-phenyl-1H-imidazol-1-yl)methyl)quinolin-2(1H)-one], the EC50 was more than 5 µM.
To `Cc1ncsc1C(=O)N(Cc1cc(=O)[nH]c2c(F)cccc12)c1cccc(Cl)c1F` [Example 187, N-(3-Chloro-2-fluorophenyl)-N-((8-fluoro-2-oxo-1,2-dihydroquinolin-4-yl)methyl)-4-methylthiazole-5-carboxamide] belongs not above 5 µM; to `Cc1ncsc1C(=O)N(Cc1cc(=O)[nH]c2c(F)c(F)ccc12)c1cccc2ccccc12` [Example 179, N-(1-Naphthalene)-N-((7,8-fluoro-2-oxo-1,2-dihydroquinolin-4-yl)methyl)-4-methylthiazole-5-carboxamide], not above 5 µM; to `O=c1cc(Cn2c(CN3CCOCC3)nc3ccccc32)c2ccc(F)c(F)c2[nH]1` [Example 194, 7,8-Difluoro-4-((2-(morpholinomethyl)-1H-benzo[d]imidazol-1-yl)methyl)quinolin-2(1H)-one], more than 5 µM.
On to `CN(C)c1ccccc1C(=O)N(Cc1cc(=O)[nH]c2c(F)cccc12)c1cccc(Cl)c1` [Example 74, N-(3-Chlorophenyl)-2-(dimethylamino)-N-((8-fluoro-2-oxo-1,2-dihydroquinolin-4-yl)methyl)benzamide], for which the EC50 is more than 5 µM.
On to `Cc1ncccc1C(=O)N(Cc1cc(=O)[nH]c2ccccc12)c1ccccc1` [Example 37, 2-Methyl-N-((2-oxo-1,2-dihydroquinolin-4-yl)methyl)-N-phenylnicotinamide], for which the EC50 was not above 5 µM.
`CN(Cc1cc(=O)[nH]c2ccccc12)c1ccccc1` [Example 15, 4-[(Methyl-phenyl-amino)-methyl]-1H-quinolin-2-one] returned an EC50 not above 5 µM.
In turn, `Cc1ccccc1Cc1nc2ccccc2n1Cc1cc(=O)[nH]c2c(F)c(F)ccc12` [Example 216, 7,8-Difluoro-4-((2-(2-methylbenzyl)-1H-benzo[d]imidazol-1-yl)methyl)quinolin-2(1H)-one] registered an EC50 of more than 5 µM.
Consider `Cc1ncsc1C(=O)N(Cc1cc(=O)[nH]c2ccccc12)c1ccccc1` [Example 29, 4-Methyl-N-((2-oxo-1,2-dihydroquinolin-4-yl)methyl)-N-phenylthiazole-5-carboxamide], for which the EC50 is more than 5 µM.
In turn, `O=c1cc(Cn2c(-c3cccnc3)nc3ccccc32)c2ccc(F)c(F)c2[nH]1` [Example 120, 7,8-Difluoro-4-((2-(pyridin-3-yl)-1H-benzo[d]imidazol-1-yl)methyl)quinolin-2(1H)-one] yielded an EC50 of more than 5 µM.
In turn, `Cc1ncsc1C(=O)N(Cc1cc(=O)[nH]c2c(F)c(F)ccc12)C(C)C` [Example 185] displayed an EC50 of more than 5 µM.
In turn, `O=c1cc(Cn2c(CC3CCCC3)nc3ccccc32)c2ccc(F)c(F)c2[nH]1` [Example 215, 4-((2-(Cyclopentylmethyl)-1H-benzo[d]imidazol-1-yl)methyl)-7,8-difluoroquinolin-2(1H)-one] yielded an EC50 not above 5 µM.
The compound `O=c1cc(Cn2c(N3CCOCC3)nc3ccccc32)c2ccc(F)c(F)c2[nH]1` [Example 200, 7,8-Difluoro-4-((2-morpholino-1H-benzo[d]imidazol-1-yl)methyl)quinolin-2(1H)-one] gave an EC50 of more than 5 µM.

The values above are taken from patent US20080139558A1, “QUINOLONES USEFUL AS INDUCIBLE NITRIC OXIDE SYNTHASE INHIBITORS” (KALYPSYS, INC., priority 2006, published 2008).
